Structures can show the parent of a compound that is named as a salt.
How the values were obtained:
Format in all cases: cell-based
α-SMA [1] = assay: In vitro efficacy in semi-activated LX2 cells, qPCR: α-SMA; settings: 48 hours, Q-PCR; for inhibition at 50 µM: read-out: α-SMA mRNA inhibition rate; for inhibition of the expression of α-SMA at the mRNA level: Table 2
Outline: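 LX-2 human hepatic stellate cells were plated, allowed to adhere for 12 hours, then exposed to test compound at 50 µM for 48 hours. Total RNA was extracted, reverse-transcribed to cDNA, and target mRNA quantified by SYBR Green qPCR using the relative quantification method.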

α-SMA [2] = assay: Semi-activated LX2 cells, Western blot: α-SMA protein; settings: 50-400 μM, 48 hours, FIG. 2, vs 50 μM aspartic acid
collagen III = assay: Semi-activated LX2 cells, Western blot: collagen III protein; settings: 50-400 μM, 48 hours, FIG. 1, vs 50 μM aspartic acid
Description: 4. Western blotting to detect protein expression level
4.1 Extraction of total cell protein: The cells were taken out, the original culture medium was discarded, 1 to 2 mL of 1×PBS was added, washing was performed twice, digestion was performed with trypsin, the supernatant was discarded, the cells at the bottom of the tube were gently moved by flicking, and then 1 mL of PBS was added again to wash the cells twice; after being centrifuged at 1200 rpm for 5 minutes, the supernatant was completely discarded, the cells at the bottom of the tube was mixed well by flicking. Depending on the amount of cells, 50 to 100 μL of protein lysis buffer containing protease inhibitor and phosphatase inhibitor was added, the cells were mixed thoroughly by pipetting, placed on ice and lysed for 30 minutes, then centrifuged at 12,000 rcf for 15 minutes at 4° C., and the supernatant was pipetted and transferred into a new EP tube to obtain the total cell protein, which could be directly used for subsequent determination of protein concentration or stored at −80° C.
4.2 Determination of protein concentration by BCA method: BCA reagent solution A and solution B were mixed well at a ratio of 50:1 to prepare a working solution; 5 μL of the sample to be tested was taken, added into 95 μL of deionized water, mixed, and diluted 20 times, and 20 μL of the diluted sample to be tested was taken and added to a 96-well plate; after 200 μL of the working solution was added, the 96-well plate was placed in a 37° C. incubator and incubated for 30 min, and then tested on the machine.
4.3 Protein denaturation: 100 μg of each of samples was taken respectively, supplemented with protein lysis buffer to reach the volume of each sample, then added with 4× loading buffer at 1/3 of the total volume and mixed thoroughly, underwent denaturation at 99° C. for 10 min, centrifuged and stored at −80° C. […]

Row | SMILES | inhibition at 50 µM (α-SMA [1]) [%] | inhibition of the expression of α-SMA at the mRNA level (α-SMA [1]) | inhibitory effect on α-SMA protein as compared to ASP (α-SMA [2]) | inhibitory effect on collagen III protein expression as compared to ASP (collagen III)
1 | COC(=O)[C@@H](N)CC(=O)O [Compound 4] | 25 to 50 | could inhibit | stronger inhibitory effects | 
2 | COC(=O)C[C@H](N)C(=O)OCOC(=O)[C@@H](N)CC(=O)OC [Compound 54, 4-dimethyl O′1,01-methylene (2S,2'S)-bis (2-aminosuccinate) hydrochloride] |  | could inhibit |  | stronger inhibitory effects
3 | N[C@@H](CCC(=O)O)C(=O)O [Compound 47] |  |  | stronger inhibitory effects | stronger inhibitory effects
4 | COC(=O)C[C@H](N)C(=O)O [Compound 6] | 10 to 25 | could inhibit | stronger inhibitory effects | stronger inhibitory effects
